Data as given in article PMC5037631, “Identification and characterization of putative xylose and cellobiose transporters in Aspergillus nidulans” (Biotechnology for Biofuels, 2016).

Target: T1, CltA (formerly XtrG; CltA::GFP) (Aspergillus nidulans, UniProt Q5ATN3)
T1 construct: gene ANIA_08347; full-length ORF from cDNA, GFP fusion, expressed in S. cerevisiae SC9721 with N. crassa beta-glucosidase gh1-1; plasma membrane
Experiment: growth complementation of S. cerevisiae SC9721 gh1-1 on cellobiose
Type: cell-based
Conditions: 0.1-2 % cellobiose as sole carbon source, 30 °C; intracellular beta-glucosidase gh1-1 coexpressed

T1 sequence (Q5ATN3 entry or part of it): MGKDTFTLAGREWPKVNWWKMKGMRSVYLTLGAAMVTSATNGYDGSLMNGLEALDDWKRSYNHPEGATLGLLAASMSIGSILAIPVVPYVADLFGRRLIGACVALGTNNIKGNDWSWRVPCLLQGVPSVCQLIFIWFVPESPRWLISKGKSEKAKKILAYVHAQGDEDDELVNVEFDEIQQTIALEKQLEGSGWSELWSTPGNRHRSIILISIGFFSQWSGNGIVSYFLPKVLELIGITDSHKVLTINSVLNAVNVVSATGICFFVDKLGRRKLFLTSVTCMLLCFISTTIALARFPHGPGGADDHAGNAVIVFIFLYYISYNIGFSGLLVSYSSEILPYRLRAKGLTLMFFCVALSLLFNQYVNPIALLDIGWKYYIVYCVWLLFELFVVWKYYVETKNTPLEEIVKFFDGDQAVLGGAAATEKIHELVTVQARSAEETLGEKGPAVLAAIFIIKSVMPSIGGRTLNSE

OC[C@H]1O[C@@H](O[C@H]2[C@H](O)[C@@H](O)C(O)O[C@@H]2CO)[C@H](O)[C@@H](O)[C@@H]1O (stereo partly shown) [cellobiose] was tested, and the “growth complementation of S. cerevisiae SC9721 gh1-1 on cellobiose” value was “CltA, and to a lesser extent CltB, is able to transport cellobiose”.
